Test results from patent US5420335A, “Parenteral nutrients based on watersoluble glycerol bisacetoacetates” (priority 1993, dated 1995).

How the values were obtained:
[1] = in words; cited from earlier work
[2] = Overall evaluation as a parenteral nutrient; type: in vivo, rat (male Sprague-Dawley); settings: in words
Description: Water was available ad libitum at all times.
The vein was then ligated dorsally to the catheter. […] Body weights were measured daily.
Infusate volume, oral food intake, body weight and urinary volume and total nitrogen were monitored daily for each rat. Infusate volume and food intake were determined by weighing the appropriate container at the start and end of each 24 hr. period. Measurements were recorded between 9 and 10 AM each day. At the end of the 7th day, rats were sacrificed, and blood and liver were harvested. Plasma was separated for measurement of free fatty acids, glucose, and ketone bodies. Liver was weighed and a sample was fixed in buffered formalin for gross histology.
The data were analyzed for significance by the one-way analysis of variance with repeated measures and comparing the effect of dietary treatment on each day. […] The null hypothesis was concluded invalid if p≤0.05. The analysis of variance was computed on a SAS statistical package.

CC(=O)CC(=O)OCC1COC(C)(C)O1 (stereo not shown) [1,2-isopropylideneglyceryl 3-acetoacetate]
enhance the absorption of certain agents in the intestine [1]: enhance the absorption of certain agents in the intestine

CC(=O)CC(=O)OCC(O)COC(=O)CC(C)=O [1,3-bisacetoacetylglycerol]
enhance the absorption of certain agents in the intestine [1]: enhance the absorption of certain agents in the intestine

CC(=O)OCC1COC(C)(C)O1 (stereo not shown) [2,3-isopropylidene-1-acetate]
enhance the absorption of certain agents in the intestine [1]: enhance the absorption of certain agents in the intestine

Partially Reduced Pentaacetoacetyl-glucose [Compound 3]
efficacy as parenteral nutrient / energy source [2]: ineffective as parenteral nutrients
